Target: T1, D444C mutant EAAC1 (Oryctolagus cuniculus, UniProt P31597, D444C)
T1 sequence (P31597 1-524 D444C): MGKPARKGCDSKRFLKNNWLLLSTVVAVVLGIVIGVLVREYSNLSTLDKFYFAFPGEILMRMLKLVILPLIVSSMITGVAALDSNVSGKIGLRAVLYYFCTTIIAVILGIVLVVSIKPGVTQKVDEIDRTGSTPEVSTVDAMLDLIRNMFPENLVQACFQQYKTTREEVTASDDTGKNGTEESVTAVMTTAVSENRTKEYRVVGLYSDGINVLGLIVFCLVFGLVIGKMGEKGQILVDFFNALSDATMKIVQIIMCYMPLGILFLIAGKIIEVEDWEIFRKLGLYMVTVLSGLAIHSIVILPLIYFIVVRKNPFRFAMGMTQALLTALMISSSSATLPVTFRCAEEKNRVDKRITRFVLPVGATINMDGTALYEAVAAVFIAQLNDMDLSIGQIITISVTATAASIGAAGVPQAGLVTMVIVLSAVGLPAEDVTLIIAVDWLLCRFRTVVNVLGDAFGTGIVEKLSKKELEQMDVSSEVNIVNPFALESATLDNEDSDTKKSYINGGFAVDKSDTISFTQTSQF
Assay type: cell-based, rabbit

O=C(O)CCC(=O)O [Succinate, succinate]
Inhibition of D-[3H]-aspartate uptake: fully inhibited

From paper PMC2151622 (The Journal of General Physiology, 2007)
